Results published in patent US9353134B2, “Silicon-containing carboxylic acid derivative” (KEMPHYS LTD., priority 2012, dated 2016).

- melting point: 151.5 to 153 °C
SMILES: C[Si](C)(CC(CN)CC(=O)O)C1CC1 (stereo not shown)
